# According to US10562857B2 (AFASCI, Inc., priority 2015, dated 2020):
# “Also recorded” adds a separate entry of the source. Read-outs that look alike come from different tables or passages of the source.
# Legend:
# [1] = Plasma stability, rat; format: in vitro ADME
# From the text: (§1) In vitro data of metabolic stability and protein binding as well as in vivo pharmacokinetic data for compounds of the invention can be generated using the techniques disclosed in, e.g., Obach, R. S. et al., J. Pharmacol. Exp. Ther. 283(1): 46-58 (1997), which is hereby incorporated by reference in its entirety. Various biological, pharmacokinetic and other properties of the compounds, including hepatic microsomal stability, determination of metabolites, binding to proteins such as plasma protein binding, and in vivo studies, including single-dose and multi-dose pharmacokinetic studies, can be determined using the protocols described in that publication and the publications cited therein. Other aspects and advantages of the present invention will become apparent from the above detailed description, as illustrated by way of example of the principles of the invention. The scope of the invention is to be defined by the claims appended hereto and their equivalents. Selected pharmacokinetic studies in vitro and in vivo in rats were performed for preferred compounds, for example EXAMPLE-128 and compared with two reference compounds ML218 and Z944 by a contract research organization (BioDuro, Inc., San Diego, US). Tables 3A and 3B summarize some of the in vitro and vivo pharmacodynamic and pharmacokinetic parameters, respectively.
# [2] = test system: SNL rats; assay: Spinal nerve ligation (SNL) rats, von Frey monofilament test; format: in vivo, rat; details: for order of analgesic efficacy against allodynia: each 30 mg/kg P.O.; for SNL Model Mechanical % of baseline: pain in rats, 30 mg/kg, P.O.
# Procedure: FIG. 5A. Mechanical pain threshold assessment (von Frey monofilament test) of spinal nerve ligation (SNL) rats' left hindpaws. Each SNL rat received either EXAMPLE-128, at 3, 10 or 30 mg/kg (2 mL oral gavage, P.O.), or vehicle (2 mL 2% DMSO in 0.5% HPC, P.O.). […] Mechanical pain responses were measured at 1, 2, 4 and 6 hours after treatment (n=8 rats per treatment group).
# FIG. 5B. Mechanical pain threshold assessment (von Frey monofilament test) of SNL rats' left hindpaws. In the same cohort of animals, each SNL rat received either EXAMPLE-128, -130, Z944 (as a reference compound, each at 30 mg/kg, 2 mL oral gavage, P.O.), or vehicle (2 mL 2% DMSO in 0.5% HPC, P.O.). The degree of analgesia against allodynia in the order of EXAMPLE-128>Z944>EXAMPLE-130 compared to the […] group. Mechanical pain responses were measured at 1, 2, 4 and 6 hours after treatment (n=8 rats per treatment group).
# The spinal nerve ligation (SNL) in rats is another commonly used neuropathic pain model (Kim & Chung, 1992). The analgesic effect of the selected EXAMPLE-128 was tested in this model. Baseline mechanical thresholds on the rats' left hindpaws of male rats (Sprague-Dawley rats, 300 g-350 g, Harlan) were taken using von Frey hair monofilaments prior to surgery. Ligation of the L5 peripheral nerve was made on the left side under anesthesia. Total 32 rats underwent surgery (n=8 rats per treatment group). Ten days post-surgery, approximately 75-85(%) reduction in mechanical pain was observed, confirming the presence of mechanical allodynia in the SNL rats. Each rat received either EXAMPLE-128 (at 3, 10 and 30 mg/kg, each dose in […], P.O.), or vehicle (2% DMSO in 0.5% HPC, […], P.O.). Mechanical thresholds were measured at 1, 2, 4, and 6 hours post-treatment/dosing. […] The drug actions started around 1 hour post-injection and peaked between 1 and 2 hours, and the drug effects gradually declined to pre-treatment levels in 6 hours (FIG. 5A). After the drug had been eliminated, and the thresholds had returned to initial mechanical allodynia, a comparative test of EXAMPLE-128 and -130 vs Z944 (each at 30 mg/kg, P.O.) was conducted in the same cohort of SNL rats. The analgesic efficacy is in the order of EXAMPLE-128>Z944>EXAMPLE-130 (FIG. 5B).
# [3] = test system: formalin-induced inflammation in mice; assay: Formalin-induced pain in mice; format: in vivo, mouse; details: 30 mg/kg I.P. 30 min before 10% formalin
# Procedure: FIG. 8. Effects of EXAMPLE-128 (30 mg/kg, I.P.) or vehicle on formalin-induced inflammation in male mice (C57BL/6, ˜3 months old; n=8 mice per group). The test compound was I.P. administered 30 min prior to local injection of 10% formalin into the left hindpaw (10 μl). Time spent in grooming, licking or biting the injury paw was manually scored immediately following formalin injection in 5-min time bin for 45 min.
# Formalin-induced biphasic response, nociception followed by inflammatory pain in a mouse hindpaw, is an acute pain and chemical-induced inflammatory pain model. The EXAMPLE-128 was tested in this model. Mice (C57BL/6, male, ˜2 months old; n=8 mice per treatment group) received a 10 μl intraplantar injection of 10% formalin in saline into the left hindpaw. Pain response scoring includes counts per episode of time of reactions to the pain stimulus as indicated by licks, twitches, raising or shaking of the injected paw.
# [4] = Metabolic stability in rat liver microsomes; format: in vitro ADME
# From the text: as §1
# [5] = test system: taxol-induced neuropathic pain model in mice; assay: Taxol-induced neuropathic pain in mice, von Frey test; format: in vivo, mouse; details: taxol 4 mg/kg I.P., 3, 10 or 30 mg/kg I.P.
# Procedure: FIG. 6A. Effects of EXAMPLE-115 on taxol (4 mg/kg, I.P.)-induced neuropathic pain model in mice. Mechanical pain thresholds of left hindpaws were assessed using von Frey monofilament test. Each mouse received either EXAMPLE-115 (3, 10 or 30 mg/kg, I.P.) or vehicle (2% DMSO in 0.5% HPC, I.P.; n=8 per group). Injection of taxol lowered mechanical pain thresholds.
# FIG. 6B. Effects of EXAMPLE-123 on taxol (4 mg/kg, I.P.)-induced neuropathic pain model in a separate cohort of mice. Mechanical pain thresholds of left hindpaws were assessed using von Frey monofilament test. Each mouse received either EXAMPLE-123 (30 mg/kg, I.P., n=8) or vehicle (2% DMSO in 0.5% HPC, I.P.).
# Chemotherapy-induced painful neuropathy is a common side effect associated with chronic treatment with Taxol (paclitaxel) or other anticancer drugs based on cytotoxicity. Taxol or paclitaxel is one of the most popular drugs used for the treatment of various cancers (Chaudhry et al., 1994). The chemotherapy-induced peripheral neuropathy manifests as chronic hyperalgesia and other sensory abnormalities. Taxol (Sigma, 4.0 mg/kg, I.P.) was dissolved in saline containing 5% DMSO (vehicle) and injected to mice (freshly prepared before injection).
# [6] = SNL rats, 3, 10 and 30 mg/kg P.O.
# [7] = read-out: Rat Liver Microsomes Clint (μL/min/mg protein)
# [8] = read-out: Rat Liver Microsomes t1/2
Compound,Plasma Stability @ 5 h % (Rat) [1],order of analgesic efficacy against allodynia ([2]; SNL rats),SNL Model Mechanical % of baseline [2],"microsomal CLint [4, 7]","half-life [4, 8]",other results
"CC(C)(C)NC(=O)CN1CCC2(CC1)CC2NC(=O)c1cc(F)cc(Cl)c1 (single isomer, unassigned) [Example 128, (S)—N-(6-(2-(tert-Butylamino)-2-oxoethyl)-6-azaspiro[2.5]octan-1-yl)-3-chloro-5-fluorobenzamide or (R)—N-(6-(2-(tert-Butylamino)-2-oxoethyl)-6-azaspiro[2.5]octan-1-yl)-3-chloro-5-fluorobenzamide]",98.3%,EXAMPLE-128>Z944>EXAMPLE-130,129 ± 28 % of baseline,–,–,"start of drug action post-injection [2, 6]: around 1 hour; time for drug effects to decline to pre-treatment levels [2, 6]: 6 h; mechanical pain threshold of left hindpaw (allodynia) ([2]; SNL rats, 3, 10 or 30 mg/kg P.O.): elevated mechanical thresholds in a dose-related manner; also recorded: reduced allodynia compared to the SNI-vehicle group in a dose-related manner; formalin-induced biphasic pain response [3]: produced inhibition of both phases; half-life [4]: 5.25 h; microsomal CLint [4]: 2.2 µL/min/mg"
"CC(C)(C)NC(=O)CN1CCC2(CC1)C[C@H]2NC(=O)c1cc(F)cc(C(F)(F)F)c1 (single isomer, unassigned) [Example 130, (R)—N-(6-(2-(tert-Butylamino)-2-oxoethyl)-6-azaspiro[2.5]octan-1-yl)-3-fluoro-5-(trifluoromethyl)benzamide or (S)—N-(6-(2-(tert-Butylamino)-2-oxoethyl)-6-azaspiro[2.5]octan-1-yl)-3-fluoro-5-(trifluoromethyl)benzamide]",–,EXAMPLE-128>Z944>EXAMPLE-130,–,–,–,–
"O=C(Nc1nnc(-c2ccccc2)o1)c1ccc(Cl)s1 [Example 115, 5-Chloro-N-(5-phenyl-1,3,4-oxadiazol-2-yl)thiophene-2-carboxamide]",–,–,–,–,–,"mechanical pain threshold, taxol-induced neuropathic pain [5]: produced significant effects on Taxol-induced pain compared to vehicle in a dose-dependent manner; also recorded: reversed the taxol-induced neuropathic pain in a dose-dependent manner"
"CC(C)(C)CCN1C[C@@H]2[C@@H](CNC(=O)c3cc(Cl)cc(Cl)c3)[C@@H]2C1 [ML218, 3,5-Dichloro-N-[[(1α,5α,6-exo,6α)-3-(3,3-dimethylbutyl)-3-azabicyclo[3.1.0]hex-6-yl]methyl]benzamide, reference compound]",99.2%,–,–,5.5 µL/min/mg,2.1 h,–
"CC(C)(C)NC(=O)CN1CCC(CNC(=O)c2cc(F)cc(Cl)c2)CC1 [Z944, reference compound]",100%,EXAMPLE-128>Z944>EXAMPLE-130,94 ± 38 % of baseline,13.2 µL/min/mg,0.875 h,–
